Results taken from patent publication US12285392B2, “Method for modulating metabolism” (Brightseed, Inc., priority 2018, dated 2025).

What was measured:
[1] = Hepatic microsome stability assay, mouse; type: in vitro ADME; conditions: mouse microsomes
Experimental: (§1) Hepatic Microsome Assay. Hepatic microsomes stability assays were performed in accordance with known methods (Peddibhotla, et al. (2013) ACS Med. Chem. Lett. 4:846-851). Briefly, 3 μL of 25 μM compound solution in acetonitrile were incubated with 123 μL of mouse, human or rat liver microsomes (Xenotech, Kansas City, Kans.). […] The microsomal concentrations used were 1.0 mg/mL. Compounds were incubated in microsomes for 0, 5, 15, 30 and 60 minutes. The reactions were stopped by the addition of ice cold ACN and the reaction mixtures were centrifuged at 10,000 g for 10 minutes before the supernatant was removed for analysis. A 10 μL portion of the resulting extract was injected on a Thermo HPLC system equipped with PAL CTC plate sampler (96-well plate), Dionex Ultimate 3000 binary pump (flow rate at 0.600 mL/min), Dionex Ultimate 3000 thermostatted column compartment (temperature at 40° C.), Thermo Endura Mass Spectrometer (ESI source), using a Thermo Scientific Accucore C18 (2.6 μM, 2.1×50 mm) column. A gradient was run starting at 95% H2O (0.1% formic acid) and 5% ACN (0.1% formic acid) during the first 0.5 min, then under gradient condition of 5-100% ACN (0.1% formic acid) from minute 0.5 to 3.5, finishing at 95% H2O (0.1% formic acid) and 5% ACN (0.1% formic acid) over 0.5 min, with another 1 min at 95:5 to re-equilibrate.

HepG2 cells = test: Lipid clearance in HepG2 cells (steatosis assay, Oil Red O); type: cell-based; conditions: HepG2 liver cells, 20 μM
Experimental: Lipid Clearance in HepG2 and T6PNE Cells (Steatosis Assay). The steatosis assay was carried out as described (Kiselyuk, et al. (2012) Chem. Biol. 19(7):806-818) with the exception of the drug concentration, which was 20 μM for N-trans-caffeoyltyramine with 0.25 mM palmitate in HepG2 cell lines, and 10 μM of either N-trans-caffeoyltyramine, N-trans-caffeoyltyramine, or pcoumaroyltyramine, with 0.25 mM palmitate in T6PNE cell lines. Steatosis was assessed using the Oil Red 0 Method for Fats kits (Poly Scientific; Warrington, PA), per manufacturer's guidelines. Briefly, frozen tissue slides or fixed cells were incubated in neat propylene glycol for 2 minutes and Oil Red 0 solution for 15 hours for slides or 1 hour for fixed cells, differentiated in 85% propylene glycol solution for 1 minute, washed twice with distilled water and stained in Hematoxylin of 10 seconds. Slides were mounted with glycerin jelly mounting medium.

HNF4α = molecular target: T1, HNF4α (Homo sapiens, UniProt P41235); test: Insulin promoter activity assay in T6PNE cells (HNF4α activity); type: cell-based
T1 construct: endogenous in cells; host or cells: T6PNE cells
T1 sequence (P41235 1-474): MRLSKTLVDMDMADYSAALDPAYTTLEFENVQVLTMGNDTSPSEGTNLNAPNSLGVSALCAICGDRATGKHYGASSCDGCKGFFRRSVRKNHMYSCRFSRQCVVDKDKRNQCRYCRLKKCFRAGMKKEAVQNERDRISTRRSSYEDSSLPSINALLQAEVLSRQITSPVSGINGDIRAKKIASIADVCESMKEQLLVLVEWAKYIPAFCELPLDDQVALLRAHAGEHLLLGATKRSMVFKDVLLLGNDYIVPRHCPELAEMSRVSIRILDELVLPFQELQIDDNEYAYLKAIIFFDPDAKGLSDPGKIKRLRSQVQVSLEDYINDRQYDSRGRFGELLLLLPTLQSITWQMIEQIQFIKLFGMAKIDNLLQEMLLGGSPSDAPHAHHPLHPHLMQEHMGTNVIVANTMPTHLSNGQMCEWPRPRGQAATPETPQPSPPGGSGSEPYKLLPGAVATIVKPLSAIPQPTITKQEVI
Experimental: Insulin Promoter Activity. T6PNE cells (Kiselyuk, et al. (2012) Chem Biol. 19(7):806-818; Kiselyuk, et al. (2010) J. Biomol. Screen 15(6):663-70) are seeded at 2000 cells per well in 384-well tissue culture plates in the presence of 1 μM tamoxifen and 0.03 mM palmitate. After a 24-hour incubation, a compound or extract of the invention is added to the cells. Forty-eight hours after compound or extract addition, cells are fixed in 4% paraformaldehyde and stained with DAPI. Blue (DAPI) and green (human insulin promoter driving GFP) channels are imaged.
Inhibition of HNF4α GFP Expression. Using the insulin promoter assay described herein, activity of HNF4α was assessed in the presence of BI-6015 (0, 2.5, 5 μM), a known antagonist of HNF4α (Kiselyuk, et al. (2012) Chem. Biol. 19(7):806-818), in combination with N-trans-caffeoyltyramine (0, 5, 10, 20 μM).
Given the role of HNF4α in maintaining a heal thy metabolism in humans, test compounds were screened for activity as HNF4α agonists (either direct or indirect effects). Using a known insulin promoter-reporter assay, Kiselyuk and colleagues (2010. J. Biomol. Screen 15(6):663-70), screened a library of compounds for activity to promote insulin activation. […] The OTC promoter is known to be responsive to HNF4α in transient transfection assays (Inoue, et al. (2002) J. Biol. Chem. 277:25257-65).

estrogenic activity = test: Counter-screen for estrogenic activity (E47MER luciferase reporter in HeLa cells); type: cell-based, human; conditions: FIG. 5
Experimental: Counter-Screen for Estrogenic Activity. Estrogenic activity was monitored by co-transfection of a reporter plasmid containing a multimerized E-box 5′ of a minimal promoter fused to the Firefly luciferase gene (4RTK-luc) with wild-type E47 or E47MER (Kiselyuk, et al. (2010) J. Biomol. Screen 15(6):663-70). HeLa cells were transfected using polyethylenimine, 0.2 μg 4RTK-Luc plasmid and either 0.3 μg of human E47, E47MER or pMSCVhph vector in 50 μl of serum-free Dulbecco's modification of Eagle medium per well. Transfections included Renilla luciferase (pRL-TK) plasmid as a control for transfection efficacy. Transfection conditions were as described in the PPRE-Luc reporter assay of Kiselyuk, et al. ((2010) J. Biomol. Screen 15(6):663-70). Sixteen hours after transfection, culture media were changed and maintained for 48 hours with tamoxifen and/or compound or vehicle (DMSO). Cells were then lysed and assayed for luciferase activity using the Promega DUAL-LUCIFERASE® reporter assay kit (Promega Corp., Madison, WI), and luminescence was measured using the Veritas™ Microplate Luminometer (Turner Biosystems, Sunnyvale, CA). Data were normalized to Renilla luciferase (pRL-TK) and expressed as fold-change over vehicle alone.

[2] = Hepatic microsome stability assay, rat; type: in vitro ADME; conditions: rat microsomes
Experimental: as §1

O=C(/C=C/c1ccc(O)c(O)c1)NCCc1ccc(O)cc1 [N-trans-caffeoyltyramine]
% Remaining ([1]; 1 μM): 0.4%
% Remaining ([1]; 10 μM): 0.3%
Clearing of fats (Oil Red O staining) (HepG2 cells): capable of clearing harmful fats from the liver
Accumulation of fats (HepG2 cells; 0.25 mM palmitate): inhibited accumulation of fats
Potency in activating HNF4α relative to Alverine (HNF4α; FIG. 1, insulin promoter activity dose-response): roughly an order-of-magnitude more potent than Alverine
HNF4α modulation in screening (HNF4α; screening in the HNF4α assay): able to act as HNF4α modulators
Estrogenic activity (estrogenic activity): did not exhibit estrogenic activity
% Remaining ([2]; 1 μM): 0.6%
% Remaining ([2]; 10 μM): 33.6%
